Key:
TNFα = test: cells; assay type: cell-based, human; settings: Homo sapiens, Monocyte, LPS-stimulated human monocytes, TNFα content; read-out: EC50 TNF
IRAK4 enzyme = IRAK4 enzyme (Homo sapiens (Human), UniProt Q9NWZ3); test: biochemical; assay type: biochemical; settings: IRAK4 enzyme, TR-FRET (HTRF), 500 μM ATP
Chain of IRAK4 enzyme (Q9NWZ3 whole entry): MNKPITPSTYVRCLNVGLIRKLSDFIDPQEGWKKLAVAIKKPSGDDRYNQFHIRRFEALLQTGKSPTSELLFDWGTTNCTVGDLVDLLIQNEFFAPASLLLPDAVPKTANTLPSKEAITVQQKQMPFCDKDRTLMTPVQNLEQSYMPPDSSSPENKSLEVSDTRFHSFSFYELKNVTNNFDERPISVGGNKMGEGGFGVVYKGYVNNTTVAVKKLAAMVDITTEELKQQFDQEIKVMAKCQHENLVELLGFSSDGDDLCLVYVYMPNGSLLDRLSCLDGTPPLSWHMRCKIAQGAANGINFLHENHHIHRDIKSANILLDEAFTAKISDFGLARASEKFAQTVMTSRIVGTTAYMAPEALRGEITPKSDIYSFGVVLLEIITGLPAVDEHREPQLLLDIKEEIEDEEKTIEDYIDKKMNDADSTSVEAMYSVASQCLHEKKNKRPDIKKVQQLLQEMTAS

| Structure (SMILES) | EC50 (TNFα) [nM] | IC50 (IRAK4 enzyme) [nM] |
| --- | --- | --- |
| COC(=O)C12CCCC(Nc3cc(-c4ccc5cc(C#N)cnn45)ncc3C(=O)NC[C@@H](F)C(C)(C)O)(CC1)CC2 [Example 543, (R)-methyl 5-((2-(3-cyano-pyrrolo[1,2-b]pyridazin-7-yl)-5-((2-fluoro-3-hydroxy-3-methylbutyl)carbamoyl)pyridin-4-yl)amino)bicyclo[3.2.2] nonane-1-carboxylate] | 49 | 2 |
| CC(=O)NC[C@H]1C[C@H](Nc2cc(-c3ccc4cc(C#N)cnn34)ncc2C(=O)NC[C@@H](F)C(C)(C)O)C1 [Example 544, 4-(((1r,3R)-3-(acetamidomethyl)cyclobutyl)amino)-6-(3-cyanopyrrolo[1,2-b]pyridazin-7-yl)-N-((R)-2-fluoro-3-hydroxy-3-methylbutyl)nicotinamide] | 81 | 1 |
| COC(=O)NC[C@H]1C[C@H](Nc2cc(-c3ccc4cc(C#N)cnn34)ncc2C(=O)NC[C@@H](F)C(C)(C)O)C1 [Example 545, Methyl (((1R,3r)-3-((2-(3-cyanopyrrolo[1,2-b]pyridazin-7-yl)-5-(((R)-2-fluoro-3-hydroxy-3-methylbutyl)carbamoyl)pyridin-4-yl)amino)cyclobutyl)methyl)carbamate] | 5 | < 1 |
| CC(=O)NCC12CC(Nc3cc(-c4ccc5cc(C#N)cnn45)ncc3C(=O)NC[C@@H](F)C(C)(C)O)(C1)C2 [Example 546, (R)-4-((3-(acetamidomethyl)bicyclo[1.1.1]pentan-1-yl)amino)-6-(3-cyano-pyrrolo[1,2-b]pyridazin-7-yl)-N-(2-fluoro-3-hydroxy-3-methylbutyl) nicotinamide] | 90 | 1 |
| COC(=O)NCC12CC(Nc3cc(-c4ccc5cc(C#N)cnn45)ncc3C(=O)NC[C@@H](F)C(C)(C)O)(C1)C2 [Example 547, (R)-methyl ((3-((2-(3-cyanopyrrolo[1,2-b]pyridazin-7-yl)-5-((2-fluoro-3-hydroxy-3-methylbutyl)carbamoyl)pyridin-4-yl)amino)bicyclo[1.1.1]pentan-1-yl)methyl)carbamate] | 28 | < 1 |
| CC(C)(O)[C@H](F)CNC(=O)c1cnc(-c2ccc3cc(C#N)cnn23)cc1N[C@H]1C[C@H](C(C)(C)O)C1 [Example 548, 6-(3-cyanopyrrolo[1,2-b]pyridazin-7-yl)-N-((R)-2-fluoro-3-hydroxy-3-methylbutyl)-4-(((1r,3R)-3-(2-hydroxypropan-2-yl)cyclobutyl)amino) nicotinamide] | 22 | 1 |
| CC(C)(C)OC(=O)NC[C@H]1C[C@H](Nc2cc(-c3ccc4cc(C#N)cnn34)ncc2C(=O)NC[C@@H](F)C(C)(C)O)C1 [Example 549, tert-butyl (((1R,3r)-3-((2-(3-cyanopyrrolo[1,2-b]pyridazin-7-yl)-5-(((R)-2-fluoro-3-hydroxy-3-methylbutyl)carbamoyl)pyridin-4-yl)amino)cyclobutyl)methyl)carbamate] | 149 | 2 |
| CC(C)(C)OC(=O)NCC12CC(Nc3cc(-c4ccc5cc(C#N)cnn45)ncc3C(=O)NC[C@@H](F)C(C)(C)O)(C1)C2 [Example 550, (R)-tert-butyl ((3-((2-(3-cyanopyrrolo[1,2-b]pyridazin-7-yl)-5-((2-fluoro-3-hydroxy-3-methylbutyl)carbamoyl)pyridin-4-yl)amino)bicyclo[1.1.1]pentan-1-yl)methyl)carbamate] | 364 | 2 |
| CC(C)Nc1cc(-c2ccc3cc(C#N)cnn23)ncc1C(=O)NCC(F)(F)CN [Example 552, N-(3-amino-2,2-difluoro-propyl)-6-(3-cyano-pyrrolo[1,2-b]pyridazin-7-yl)-4-(isopropyl-amino)nicotinamide] | 1160 | 7 |
| COC(=O)NC(C)(CCNC(=O)c1cnc(-c2ccc3cc(C#N)cnn23)cc1NC(C)C)C(F)F (centres unmarked) [Example 553, methyl (4-(6-(3-cyano-pyrrolo[1,2-b]pyridazin-7-yl)-4-(isopropylamino)nicotinamido)-1,1-difluoro-2-methylbutan-2-yl)carbamate] | 183 | 2 |
| CC(C)Nc1cc(-c2ccc3cc(C#N)cnn23)ncc1C(=O)NCC(F)(F)CNC(=O)OC(C)(C)C [Example 554, tert-butyl (3-(6-(3-cyano-pyrrolo[1,2-b]pyridazin-7-yl)-4-(isopropylamino)nicotinamido)-2,2-difluoropropyl)carbamate] | 439 | 35 |
| CC(C)Nc1cc(-c2ccc3cc(C#N)cnn23)ncc1C(=O)NCCC(C)(N)C(F)F (centres unmarked) [Example 555, N-(3-amino-4,4-difluoro-3-methylbutyl)-6-(3-cyano-pyrrolo[1,2-b]pyridazin-7-yl)-4-(isopropylamino) nicotinamide] | 95 | 1 |
| COC(=O)NC[C@H]1CC[C@H](Nc2cc(-c3ccc4cc(C#N)cnn34)ncc2C(=O)NC[C@@H](F)C(C)(C)O)CC1 [Example 556, methyl (((1R,4r)-4-((2-(3-cyanopyrrolo[1,2-b]pyridazin-7-yl)-5-(((R)-2-fluoro-3-hydroxy-3-methylbutyl)carbamoyl)pyridin-4-yl)amino)cyclo-hexyl)methyl)carbamate] | 18 | 1 |
| CC(=O)NC[C@H]1CC[C@H](Nc2cc(-c3ccc4cc(C#N)cnn34)ncc2C(=O)NC[C@@H](F)C(C)(C)O)CC1 [Example 557, 4-(((1r,4R)-4-(acetamidomethyl)cyclo-hexyl)amino)-6-(3-cyano-pyrrolo[1,2-b]pyridazin-7-yl)-N-((R)-2-fluoro-3-hydroxy-3-methylbutyl) nicotinamide] | 27 | < 1 |
| CC(C)(O)[C@H](F)CNC(=O)c1cnc(-c2ccc3cc(C#N)cnn23)cc1N[C@H]1CC[C@H](CN)CC1 [Example 558, 4-(((1r,4R)-4-(amino-methyl)cyclohexyl)amino)-6-(3-cyano-pyrrolo[1,2-b]pyridazin-7-yl)-N-((R)-2-fluoro-3-hydroxy-3-methylbutyl) nicotinamide] | 190 | < 1 |
| CC(N)(CCNc1cc(-c2ccc3cc(C#N)cnn23)ncc1C(=O)NC[C@@H](F)C(C)(C)O)C(F)F (stereo partly drawn) [Example 559, 4-((3-amino-4,4-difluoro-3-methylbutyl)amino)-6-(3-cyanopyrrolo[1,2-b]pyridazin-7-yl)-N-((R)-2-fluoro-3-hydroxy-3-methylbutyl)nicotinamide] | 78 | 1 |
| CC(C)(O)[C@H](F)CNC(=O)c1cnc(-c2ccc3cc(C#N)cnn23)cc1NC[C@@H](F)C(C)(C)O [Example 560, 6-(3-cyanopyrrolo[1,2-b]pyridazin-7-yl)-N-((R)-2-fluoro-3-hydroxy-3-methylbutyl)-4-(((R)-2-fluoro-3-hydroxy-3-methylbutyl)amino) nicotinamide] | 83 | < 1 |
| CC(C)Nc1cc(-c2ccc3cc(C#N)cnn23)ncc1C(=O)NCCC(C)(N)C(F)(F)F (centres unmarked) [Example 561, N-(3-amino-4,4,4-trifluoro-3-methylbutyl)-6-(3-cyano-pyrrolo[1,2-b]pyridazin-7-yl)-4-(isopropylamino) nicotinamide] | 121 | 1 |
| CC(C)(O)[C@H](F)CNC(=O)c1cnc(-c2ccc3cc(C#N)cnn23)cc1NCCC(C)(N)C(F)(F)F (stereo partly drawn) [Example 562, 4-((3-amino-4,4,4-trifluoro-3-methylbutyl)amino)-6-(3-cyanopyrrolo[1,2-b]pyridazin-7-yl)-N-((R)-2-fluoro-3-hydroxy-3-methylbutyl)nicotinamide] | 75 | 1 |
| Cc1cn2ccc(Nc3cc(-c4ccc5cc(C#N)cnn45)ncc3C(=O)NC[C@@H](F)C(C)(C)O)cc2n1 [Example 563, (R)-6-(3-cyanopyrrolo[1,2-b]pyridazin-7-yl)-N-(2-fluoro-3-hydroxy-3-methylbutyl)-4-((2-methyl-imidazo[1,2-a]pyridin-7-yl)amino)nicotinamide] | 114 | 2 |
| COC(=O)c1ccc(Nc2cc(-c3ccc4cc(C#N)cnn34)ncc2C(=O)NC[C@@H](F)C(C)(C)O)cc1OC [Example 564, (R)-methyl 4-((2-(3-cyano-pyrrolo[1,2-b]pyridazin-7-yl)-5-((2-fluoro-3-hydroxy-3-methylbutyl)carbamoyl)pyridin-4-yl)amino)-2-methoxybenzoate] | 315 | 23 |
| CC1(C)C(=O)Nc2cc(Nc3cc(-c4ccc5cc(C#N)cnn45)ncc3C(=O)NC[C@@H](F)C(C)(C)O)ccc21 [Example 565, (R)-6-(3-cyanopyrrolo[1,2-b]pyridazin-7-yl)-4-((3,3-dimethyl-2-oxoindolin-6-yl)amino)-N-(2-fluoro-3-hydroxy-3-methylbutyl) nicotinamide] | 23 | < 1 |
| CC(C)(O)[C@H](F)CNC(=O)c1cnc(-c2ccc3cc(C#N)cnn23)cc1Nc1cnc2cc[nH]c2c1 [Example 566, (R)-4-((1H-pyrrolo[3,2-b]pyridin-6-yl)amino)-6-(3-cyanopyrrolo[1,2-b]pyridazin-7-yl)-N-(2-fluoro-3-hydroxy-3-methyl-butyl)nicotinamide] | 27 | < 1 |
| CC(C)(O)[C@H](F)CNC(=O)c1cnc(-c2ccc3cc(C#N)cnn23)cc1Nc1ccc(OC2COC2)cc1 [Example 567, (R)-6-(3-cyanopyrrolo[1,2-b]pyridazin-7-yl)-N-(2-fluoro-3-hydroxy-3-methylbutyl)-4-((4-(oxetan-3-yloxy)phenyl)amino)nicotinamide] | 50 | < 1 |
| CC(C)(O)[C@H](F)CNC(=O)c1cnc(-c2ccc3cc(C#N)cnn23)cc1Nc1ccc2oc(=O)[nH]c2c1 [Example 568, (R)-6-(3-cyanopyrrolo[1,2-b]pyridazin-7-yl)-N-(2-fluoro-3-hydroxy-3-methylbutyl)-4-((2-oxo-2,3-dihydrobenzo[d]oxazol-5-yl)amino)nicotinamide] | 214 | < 1 |

Source: patent publication US10336762B2 (priority 2017, dated 2019)
